Results on five compounds are retold here after patent US11793797B2, “Uses of a lysyl oxidase-like 2 inhibitor” (PHARMAKEA, INC., priority 2016, dated 2023).

Like-named read-outs stand apart in the source and are kept apart here. Bounds are passed on as bounds.

The target of series [1] is human LOXL2 (Homo sapiens (Human), UniProt Q9Y4K0). In words: Human LOXL2 CCM assay (Amplex Red amine oxidase activity). It counts as biochemical. The method, then:
Human LOXL2/CHO and human LOX/HEK stable cell lines were cultured under normal growth conditions in 15 cm tissue culture plates until cells were ˜80% confluent. Cells were then washed with PBS before the addition of 25-30 mL serum-free media (Phenol red-free DMEM/F12 mix w/glutamax containing pen/strep, 10-100 μM CuCl2±0.1% BSA). Cells were incubated at 37° C., 5% CO2 in serum-free media for 40-48 hours before the conditioned media was removed and centrifuged at 2000 rpm for 5 min at 4° C. to pellet cells/debris. The media was concentrated 10-20× using 10-30 MWCO centriprep columns according to the manufacturer's instructions (EMD Millipore, Billerica, Mass.) before aliquoting and storing at −80° C.
LOXL2 amine oxidase activity was evaluated by measuring Amplex Red fluorescence using 10-20× concentrated conditioned media (non BSA-containing) from CHO cells stably expressing human LOXL2. To assay for amine oxidase activity, 10 μL of the concentrated conditioned media was incubated with 2 μL of test compound in DMSO and 73 μL Assay Buffer (50 mM Borate Buffer, pH8) for 2 h at 37° C. After the 2 h incubation, 5 μL of 10 mM 1,5-Diaminopentane (DAP) diluted in Assay Buffer and 10 μL of Amplex Red Mix (8.5 μL Assay Buffer+0.5 μL of 10 mM Amplex Red+1 μL of 500 U/ml Horseradish Peroxidase) were added and the plate mixed and immediately placed on the FlexStation for fluorescence measurements. Fluorescence was read in kinetic mode every 2 min for 0.5-1 hour at excitation=544 and emission=590. The amine oxidase activity was calculated from the slope of the linear portion of the curve. Wells containing vehicle (DMSO) represented maximum activity and were set to 0% inhibition and wells containing 100 μM βAPN (3-aminopropionitrile) represented no activity and were set to 100% inhibition.

The test system of series [2] is collagen induced arthritis (CIA). The settings on record: in vivo CIA mouse model; cited from earlier work.
Series [3] in a line: Pharmacokinetic study of Compound 1 or 2 in rat. It counts as in vivo. The settings on record: male. The method, then: Blood samples were taken from each rat (approximately 0.3 mL total blood per time point) at pre-dose, 5 or 15 min and then at various time points up to 24 hours post-dose. Samples were collected on wet ice in tubes containing potassium EDTA (w/v in normal saline; BD Biosciences, Franklin Lakes, N.J. Plasma samples, prepared by centrifugation of whole blood, were stored frozen (−80° C.) prior to analysis. All other reagents were of analytical grade.
(§1) Analysis was performed on an LC-MS/MS systems comprised of a Sciex API-4000Qt tandem mass spectrometer (AB Sciex, Foster City, Calif.) interfaced to an HPLC system consisting of a single Agilent 1200 Series Quaternary system pump (Santa Clara, Calif.) and a LEAP PAL auto-injector (Greenville, S.C.). Analyses were performed using an Agilent Zorbax SB-C8 column (2.1×50 mm; 5 μm) for chromatographic separations at room temperature.

Series [4] in a line: in vivo. The following applies: dog. The method, then:
Blood samples were taken from each dog (approximately 1 mL total blood per time point) at pre-dose, 5 or 15 min and then at various time points up to 24 hours post-dose. Samples were collected on wet ice in tubes containing potassium EDTA (w/v in normal saline; BD Biosciences, Franklin Lakes, N.J. Plasma samples, prepared by centrifugation of whole blood, were stored frozen (−80° C.) prior to analysis. All other reagents were of analytical grade.
as §1

Series [5] has as its system bleomycin-induced lung fibrosis. As to the kind of experiment: Mouse oropharyngeal bleomycin model of lung fibrosis. It counts as in vivo.
Protocol: Lung fibrosis was induced in C57Bl/6 male mice by administering bleomycin (0.1-4 U/kg) via oropharyngeal instillation. Mice were either pretreated with vehicle or test compound orally, intraperitoneally, intravenously or subcutaneously either prophylactically (1 day to 1 hour before bleomycin instillation) or therapeutically (7-14 days post bleomycin instillation). The route and frequency of dosing were based on previously determined pharmacokinetic properties for the LOXL2 inhibitor in mouse. After bleomycin instillation, animals were monitored daily for weight loss and clinical signs for 14-28 days prior to sacrifice. Animals were euthanized at study termination and weighed. […] For histological examination, lung slices were stained with Masson's trichrome or picrosirius red to measure fibrillar collagen as an indicator of fibrosis and an Ashcroft score of lung fibrosis and inflammatory damage determined. […] After the acid hydrolysis, 25-100 μL of the supernatant is dried down, resuspended in 25 μL water and the hydroxyproline content determined by the addition of 0.5 mL Chloramine T solution (140 mg Chloramine T in 6.5 ml ddH2O+1 ml n-propanol+2.5 mL 1M sodium acetate) and incubation at room temperature for 20 min. […]
Fibrotic status was assessed histologically on Day 21 using Ashcroft score as a primary measure of lung fibrosis. […]
Series [6] deals with MDA-MB-435-GFP cells. As to the kind of experiment: Mouse orthotopic breast cancer model. The following applies: oral 60 mg/kg/day, at 4 weeks, nude mice. Type of series: in vivo. As to the method:
Tumor stocks were made by subcutaneously (s.c.) injecting MDA-MB-435-GFP cells at a concentration of 5×10^6 cells/100 μL into the flank of nude mice. When the s.c. tumors reach 50-100 mm^3, tumors were harvested and cut into 1 mm^3 fragments. Two tumor fragments were transplanted into the mammary fat pad of each mouse. […] Docetaxel was administered at 10 mg/kg intravenously once a week for 4 weeks as a positive control. Tumor size was calculated from a measurement of perpendicular minor dimension (W) and major dimension (L) using the formula (W2×L)×½ with W and L measured using a digital caliper. Mice were sacrificed after 4 weeks.

The test system of series [7] is liver fibrosis in BALB/c.Mdr2-/- mice. As to the kind of experiment: Mouse Mdr2 knockout model of biliary fibrosis. It counts as in vivo. The settings on record: a model of liver fibrosis. The method, then:
Liver disease develops in the BALB/c.Mdr2−/− mouse model with bridging fibrosis/early cirrhosis between 8 and 12 weeks of age (Ikenaga et al. 2015 Am J Pathology, 185: 325-334). […] At the end of the study, mice were anesthetized with isoflurane (1.5% v/v) via precise vaporizer. After laparotomy, portal pressure was measured directly by inserting a high-fidelity pressure catheter into the portal vein and measuring pressure signals for 5 minutes. Serum was collected for analysis of liver (ALT, AST, ALP, and bilirubin) and kidney (creatinine) biochemistries. Part of the liver was fixed in 10% neutral buffered formalin for histopathological analysis of inflammation, necrosis and fibrosis by H&E staining and picrosirius red staining. Collagen area fraction was measured from picrosirius red stained images using an algorithm that separates the red stained collagen from non-specific staining through color subtraction and thresholding of the processed image. Sections were analyzed in random order using the same threshold value for each set. Data were deconvolved after analysis to identify group assignment. Collagen content was determined from a portion of the liver tissue using hydroxyproline analysis.

Setting [8] is: PO, 0.5% MC, 30 mg/kg, fasted, AUC0-t PO/AUC0-t IV.
Setting [9] is: plasma, iv, 2 mg/kg, saline, fed.

Chain of human LOXL2 (Q9Y4K0 26-774): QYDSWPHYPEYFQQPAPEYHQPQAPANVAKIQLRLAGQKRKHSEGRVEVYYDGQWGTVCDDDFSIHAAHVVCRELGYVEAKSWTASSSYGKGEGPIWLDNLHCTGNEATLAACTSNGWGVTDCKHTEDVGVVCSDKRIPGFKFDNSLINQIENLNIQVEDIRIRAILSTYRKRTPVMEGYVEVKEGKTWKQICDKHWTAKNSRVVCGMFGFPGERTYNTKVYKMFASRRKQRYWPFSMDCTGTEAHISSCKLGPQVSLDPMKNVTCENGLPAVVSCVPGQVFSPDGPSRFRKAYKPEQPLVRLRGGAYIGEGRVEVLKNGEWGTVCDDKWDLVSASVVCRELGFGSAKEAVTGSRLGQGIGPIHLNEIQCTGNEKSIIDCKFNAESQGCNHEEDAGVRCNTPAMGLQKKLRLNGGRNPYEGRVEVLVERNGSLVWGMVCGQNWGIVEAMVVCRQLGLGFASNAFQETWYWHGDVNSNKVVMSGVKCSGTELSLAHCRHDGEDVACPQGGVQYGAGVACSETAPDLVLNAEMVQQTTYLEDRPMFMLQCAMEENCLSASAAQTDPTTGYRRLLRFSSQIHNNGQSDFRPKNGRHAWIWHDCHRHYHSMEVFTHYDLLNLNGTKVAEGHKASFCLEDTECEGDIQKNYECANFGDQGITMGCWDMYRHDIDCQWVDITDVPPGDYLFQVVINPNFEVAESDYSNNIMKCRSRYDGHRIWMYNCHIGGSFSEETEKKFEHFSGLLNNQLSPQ

In general, IC50 refers to the concentration at which inhibition is half-maximal. Consider `NCc1cc(Oc2cccc(C(=O)N3C[C@H](O)[C@@H](F)C3)c2)nc(C(F)(F)F)c1` (single isomer, unassigned) [Compound Ent-1], for which the IC50 in series [1] (human LOXL2 CCM (non BSA-containing), 2 h preincubation at 37° C., read-out: IC50) is less than 300 nM.
Regarding `N#CCCN` [BAPN, β-aminopropionitrile], the “effect on collagen induced arthritis” value in series [2] is reported as “ameliorated collagen induced arthritis (CIA)”.
By Cmax is commonly meant the peak of the concentration-time curve. By Tmax is commonly meant the time at which the peak concentration occurs. The AUC(0-t) is the area under the concentration-time curve up to a stated or last time point. High values mean more exposure, low ones less exposure. Turning to `NCc1cc(Oc2cccc(C(=O)N3C[C@@H](O)[C@H](F)C3)c2)nc(C(F)(F)F)c1` [Compound 1, (R,R)-trans-(3-((4-(aminomethyl)-6-(trifluoromethyl)pyridin-2-yl)oxy)phenyl)(3-fluoro-4-hydroxypyrrolidin-1-yl)methanone], the “AUC0-t hr/Dose” value came to 0.07 in series [3] (IV, saline, 2 mg/kg, fed); 0.05 in series [3] (PO, 0.5% MC, 30 mg/kg, fasted); 0.05 in series [3] (PO, capsule, 15 mg/kg, fasted); 0.85 in series [4] (po, 100 mg/kg). Moreover, in series [3] (setting [8]), the “F(%)” value is 71%. The Cmax in series [3] (plasma, iv, 2 mg/kg, IV, saline, 2 mg/kg, fed, read-out: Cmax) came out at 630 ng/mL; in series [3] (plasma, po, 15 mg/kg, PO, capsule, 15 mg/kg, fasted, read-out: Cmax), 1200 ng/mL; in series [3] (plasma, po, 30 mg/kg, PO, 0.5% MC, 30 mg/kg, fasted, read-out: Cmax) it was 1700 ng/mL; in series [4] (male, beagle, po, 100 mg/kg), 27 µg/mL. Moreover, the Tmax in series [3] (plasma, iv, 2 mg/kg, IV, saline, 2 mg/kg, fed, read-out: Tmax) turned out to be 4.98 min; in series [3] (plasma, po, 15 mg/kg, PO, capsule, 15 mg/kg, fasted, read-out: Tmax), 36 min; in series [3] (plasma, po, 30 mg/kg, PO, 0.5% MC, 30 mg/kg, fasted, read-out: Tmax), 15 min; in series [4] (male, beagle, po, 100 mg/kg), 78 min. Also, the area under the curve AUC(0-t) in series [3] (setting [9]) amounted to 140 ng·h/mL; in series [3] (plasma, po, 15 mg/kg, capsule, fasted), 740 ng·h/mL; in series [3] (plasma, po, 30 mg/kg, 0.5% MC, fasted), 1400 ng·h/mL; in series [4] (male, beagle, po, 100 mg/kg, AUC(0-t hr)), 85000 ng·h/mL. The bioavailability in series [3] (setting [9]) stood at 100%; in series [3] (plasma, oral, 15 mg/kg, capsule, fasted, AUC0-t PO/AUC0-t IV) it was 69%; in series [4] (male, beagle, 100 mg/kg, F(%)) it was 283%. Further, the “emesis (clinical observations)” value in series [4] (po) is “Emesis was prevalent in all dose groups”. In addition, in series [1] (CCM containing BSA, read-out: IC50, LOXL2 (CCM containing BSA)), the IC50 worked out at 116 nM. Besides, the “Ashcroft score, mean value after treatment” value in series [5] (prophylactic, oral 60 mg/kg/day from Day -1, Day 14, reduced from mean 3.1) is listed as 0.8. In addition, in series [5] (recovery study, oral 60 mg/kg starting Day 14 after bleomycin, lungs harvested Day 28), the “normalization of Ashcroft score” value worked out at 73%. Besides, the “reduction in tumor volume” value in series [6] is 35%.
For `NCc1cc(Oc2cccc(C(=O)N3C[C@@H](O)[C@H](F)C3)c2)nc(C(F)(F)F)c1` [Compound 2, (R,R)-trans-(3-((4-(aminomethyl)-6-(trifluoromethyl)pyridin-2-yl)oxy)phenyl)(3-fluoro-4-hydroxypyrrolidin-1-yl)methanone], in series [3] (PO, 0.5% MC, 30 mg/kg, fasted), the “AUC0-t hr/Dose” value is listed as 0.07, the “AUC(0-t hr)” value is 2.0 µg·h/mL, the Cmax was determined as 2600 ng/mL and the Tmax is 25.2 min. Also, in series [3] (setting [8]), the “F(%)” value is on record as 95%. Besides, in series [4] (po), the “emesis (clinical observations)” value is “Emesis was prevalent in all dose groups”; the “tolerability by dosing form (clinical observations)” value was “oral capsule and potentially the tablet were better tolerated”. Moreover, the highest level in series [4] (male, beagle, po, 300 mg/kg) (Cmax) was 143 µg/mL. In series [4] (male, beagle, po, 300 mg/kg, Tmax), the time to peak (Tmax) was 18 min.
As to `NCc1cc(Oc2cccc(C(=O)N3C[C@@H](O)[C@H](F)C3)c2)nc(C(F)(F)F)c1` [Compound I, (R,R)-trans-(3-((4-(aminomethyl)-6-(trifluoromethyl)pyridin-2-yl)oxy)phenyl)(3-fluoro-4-hydroxypyrrolidin-1-yl)methanone], the “potency relative to the (S,S)-isomer” value in series [1] (in vitro assays) is recorded as “less than 2 fold”. The “fibrosis as area fraction of Picrosirius red (collagen) positive staining” value in series [7] is given as “significantly reduced fibrosis”.
